Residues, ends and D or L forms follow the SMILES beside them.

The subject of the assay is HaCaT human keratinocyte line. Put plainly: Oris Cell Migration Assay: migration of keratinocytes. It is filed as cell-based. As to conditions: DMEM 0% FCS; for % Migration (control 0% FCS = 100) / Average ± SD (fluorescence intensity, FI): 24 h. An excerpt:
The objective of this test was to evaluate the effect of hyaluronic acid, oat seedling extract, L-alanyl-L-glutamine and combinations thereof on the migration of keratinocytes using the Oris Cell Migration Assay kit (Platypus Technologies).
The spontaneously immortalised HaCaT human keratinocyte line, frequently cited as reference model in the literature was used.
The protocol used for the study of cell migration is based on the use of a 96 well kit, the Oris Cell Migration Assay (Platypus technologies—TEBU), enabling the miniaturisation and the quantification of this cellular process.
The principle of this test consists in studying cell migration towards the centre of the wells of the 96 well plate. It consists in placing a stopper in the wells, in order to create a 2 mm diameter detection zone. Then removing the stoppers once cells have properly adhered to the surface around them, and thus to enable cells to migrate towards the detection zone. The plates without stoppers and with the active ingredients are incubated at 37° C. for 24 hours in DMEM (Dulbecco's Modified Eagle Medium) 0% FCS (foetal calf serum). The quantity of cells situated in the zone where the stopper was is analysed in order to evaluate the migration of the cells. A mask makes it possible to visualise and to count uniquely the cells situated in this zone. For each condition, the average is determined on 6 to 8 wells.
The cells were incubated in FCS-free medium.
• EGF: 33 ng/ml, • oat seedling extract: 10 or 30 μg/ml,
Filtering. Concentration by drying until a dry extract is obtained. • sodium hyaluronate (molecular weight 250-450 kDa): 20 or 60 μg/ml, • L-alanyl-L-glutamine: 40 or 90 μg/ml. Analysis of the Results
The Results are Expressed: • In fluorescence intensity (FI), proportional to the quantity of cells having migrated. • In percentage activity compared to the control 0% FCS.
[formula] Statistical Analyses
Statistical analyses by the Dunnett test were carried out on the crude migration values. This test then gives “p value” values characterising the significance of the results obtained for different conditions. The degree of significance was fixed at
The results at different concentrations of the effect of oat seedling extract, hyaluronic acid and L-alanyl-L-glutamine, alone or in combination on the migration of keratinocytes are indexed in tables 1 and 2 then represented in the single FIGURE. The fluorescence intensity values represented on this curve correspond to an average of 6 to 8 measurements carried out during an experiment representative of 3 independent manipulations.

As to `C[C@H](N)C(=O)N[C@@H](CCC(N)=O)C(=O)O` [ALANYL GLUTAMINE, L-alanyl-L-glutamine] (H-Ala-Gln-OH), the “effect on the migration of keratinocytes (in words)” value (L-alanyl-L-glutamine alone, 40 or 90 μg/ml) is given as “induces the migration of keratinocytes in a concentration-dependent manner”. Where the note is “Table 1, 40 μg/ml”, the “% Migration (control 0% FCS = 100)” value is on record as 200% and the “Average ± SD (fluorescence intensity, FI)” value (“Average ± SD” below) is reported as 2471 ± 788. For the setting “Table 2, 90 μg/ml”, the “% Migration (control 0% FCS = 100)” value was 194% and the “Average ± SD” value came to 2586 ± 1092.

As to “EGF: EGF, positive control of the migration experiments, 33 ng/ml”, the “% Migration (control 0% FCS = 100)” value was 216% (Table 1, EGF 33 ng/ml) and 301 * % (Table 2, EGF 33 ng/ml, * p < 0.05 versus control). The “Average ± SD” value reads like this: (Table 1, EGF 33 ng/ml) 2569±; (Table 2, EGF 33 ng/ml) 3553 ± 1556. Further, for the setting “positive control, EGF 33 ng/ml”, the “effect on the migration of keratinocytes (in words)” value is recorded as “induces the migration of keratinocytes”.

The record behind these values is US9849154B2, “Synergistic combination of alanine-glutamine, hyaluronic acid and oat extract and the use thereof in a composition intended for healing wounds and repairing skin lesions” (PIERRE FABRE DERMO-COSMETIQUE, priority 2013, dated 2017).
